PubChem BioAssay (NCI)
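Cells were grown in 96-well plates and exposed to each compound for 48 hours at five concentrations; endpoints were interpolated linearly between bracketing concentrations, or set to the highest concentration if not reached. GI50 = concentration required for 50% inhibition of growth. TGI: total growth inhibition.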

Columns and labels:
Experiment in all cases: NCI tumour cell line growth inhibition, 48 h
OVCAR-8 ovarian = system: OVCAR-8 ovarian
HCT-15 colon = system: HCT-15 colon
UACC-62 melanoma = system: UACC-62 melanoma
MOLT-4 leukemia = system: MOLT-4 leukemia
SK-MEL-2 melanoma = system: SK-MEL-2 melanoma
K-562 leukemia = system: K-562 leukemia
TK-10 renal = system: TK-10 renal
SN12C renal = system: SN12C renal
NCI-H460 lung = system: NCI-H460 lung
HCC-2998 colon = system: HCC-2998 colon
RPMI-8226 leukemia = system: RPMI-8226 leukemia
HOP-62 NSCLC = system: HOP-62 NSCLC
786-0 renal = system: 786-0 renal
OVCAR-3 ovarian = system: OVCAR-3 ovarian
M14 melanoma = system: M14 melanoma
HOP-92 NSCLC = system: HOP-92 NSCLC
SF-539 CNS = system: SF-539 CNS
SNB-19 CNS = system: SNB-19 CNS
A549 NSCLC = system: A549 NSCLC
MCF7 breast = system: MCF7 breast
OVCAR-4 ovarian = system: OVCAR-4 ovarian
U251 CNS = system: U251 CNS
MDA-MB-231 breast = system: MDA-MB-231 breast
SK-MEL-5 melanoma = system: SK-MEL-5 melanoma
BT-549 breast = system: BT-549 breast
CAKI-1 renal = system: CAKI-1 renal
LOX IMVI melanoma = system: LOX IMVI melanoma
NCI/ADR-RES ovarian = system: NCI/ADR-RES ovarian
PC-3 prostate = system: PC-3 prostate
SK-OV-3 ovarian = system: SK-OV-3 ovarian

In the case of CN1CCN(CCS(=O)(=O)Nc2cc(-c3ccc4ncnc(Nc5ccc(F)c(Cl)c5)c4c3)cnc2Cl)CC1, the GI50 (OVCAR-8 ovarian) is reported as 3.73 µM, the TGI (OVCAR-8 ovarian) is reported as 23.1 µM and the GI50 (HCT-15 colon) is reported as 4.38 µM. It also gave a TGI (HCT-15 colon) of 43.6 µM, a GI50 (UACC-62 melanoma) of 1.18 µM and a TGI (UACC-62 melanoma) of 9.65 µM. It also gave a GI50 (MOLT-4 leukemia) of 2.5 µM, a TGI (MOLT-4 leukemia) of 7.08 µM and a GI50 (SK-MEL-2 melanoma) of 2.32 µM. The TGI (SK-MEL-2 melanoma) was 7.79 µM, the GI50 (K-562 leukemia) was 4.5 µM and the TGI (K-562 leukemia) was > 100 µM. It also gave a GI50 (TK-10 renal) of 1.83 µM, a TGI (TK-10 renal) of 13.2 µM and a GI50 (SN12C renal) of 3.25 µM. The TGI (SN12C renal) was > 100 µM, the GI50 (NCI-H460 lung) was 5.85 µM and the TGI (NCI-H460 lung) was > 100 µM. It also gave a GI50 (HCC-2998 colon) of 1.6 µM, a TGI (HCC-2998 colon) of 6.2 µM and a GI50 (RPMI-8226 leukemia) of 13.5 µM. It also gave a TGI (RPMI-8226 leukemia) of 38 µM, a GI50 (HOP-62 NSCLC) of 2.04 µM and a TGI (HOP-62 NSCLC) of 38.4 µM. The GI50 (786-0 renal) was 1.84 µM, the TGI (786-0 renal) was > 100 µM and the GI50 (OVCAR-3 ovarian) was 0.596 µM. For the same molecule, the TGI (OVCAR-3 ovarian) was 2.99 µM, the GI50 (M14 melanoma) was 3.34 µM and the TGI (M14 melanoma) was 20.5 µM. The GI50 (HOP-92 NSCLC) was 0.675 µM, the TGI (HOP-92 NSCLC) was 7.13 µM and the GI50 (SF-539 CNS) was 1.82 µM. For the same molecule, the TGI (SF-539 CNS) was 6.8 µM, the GI50 (SNB-19 CNS) was 1.97 µM and the TGI (SNB-19 CNS) was > 100 µM. The GI50 (A549 NSCLC) was 11.1 µM, the TGI (A549 NSCLC) was 49.9 µM and the GI50 (MCF7 breast) was 1.16 µM. The TGI (MCF7 breast) was 15.3 µM, the GI50 (OVCAR-4 ovarian) was 5.45 µM and the TGI (OVCAR-4 ovarian) was > 100 µM. For the same molecule, the GI50 (U251 CNS) was 3.12 µM, the TGI (U251 CNS) was > 100 µM and the GI50 (MDA-MB-231 breast) was 1.74 µM. It also gave a TGI (MDA-MB-231 breast) of 4.13 µM, a GI50 (SK-MEL-5 melanoma) of 1.61 µM and a TGI (SK-MEL-5 melanoma) of 4.34 µM. It also gave a GI50 (BT-549 breast) of 1.06 µM, a TGI (BT-549 breast) of 4.28 µM and a GI50 (CAKI-1 renal) of 1.33 µM. The TGI (CAKI-1 renal) was 19 µM, the GI50 (LOX IMVI melanoma) was 1.17 µM and the TGI (LOX IMVI melanoma) was 2.92 µM. For the same molecule, the GI50 (NCI/ADR-RES ovarian) was 66.6 µM, the TGI (NCI/ADR-RES ovarian) was > 100 µM and the GI50 (PC-3 prostate) was 2.09 µM. For the same molecule, the TGI (PC-3 prostate) was 19.6 µM and the GI50 (SK-OV-3 ovarian) was 1.59 µM.
